This note sets out measurements from patent publication US20230146675A1, “PYRIMIDO[5,4-d]PYRIMIDINE DERIVATIVES AS ENT INHIBITORS FOR THE TREATMENT OF CANCERS, AND COMBINATION THEREOF WITH ADENOSINE RECEPTOR ANTAGONISTS” (ITEOS BELGIUM SA, priority 2020, published 2023).

Broadly, the IC50 is the concentration that gives 50% inhibition. Lower therefore signals higher potency.

Assay type in all cases: biochemical
Assay [1] addresses T1, Human phosphodiesterase-3B (Homo sapiens, UniProt Q13370).
T1 construct: host or cells: Sf9 cells
As to the kind of experiment: PDE3B (h) assay. The method, then:
The test compound (compound 72), reference compound or water (control) were added to a buffer containing 40 mM Tris/HCl (pH 7.8), 3 mM MgCl2, 1.4 mM DTT, 0.21% BSA, 200 mM NH4Cl, 2 μM cGMP and 0.05 μCi [3H]cGMP. Thereafter, the reaction was initiated by addition of the enzyme (final amount depending on the efficiency of the isolation) and the mixture was incubated for 60 min at 22° C. For basal control measurements, the enzyme was omitted from the reaction mixture. Following incubation SPA beads were added. After 20 min at 22° C. under shaking, the amount of [3H]5′GMP was quantified with a scintillation counter (Topcount, Packard). The results were expressed as a percent inhibition of the control enzyme activity. The standard inhibitory reference compound was zaprinast, which was tested in each experiment at several concentrations to obtain an inhibition curve from which its IC50 value was calculated. • Human phosphodiesterase-3B quantified by measuring the formation of 5′AMP from cAMP using a human recombinant enzyme expressed in Sf9 cells
The test compound (compound 72), reference compound or water (control) were added to a buffer containing 40 mM Tris/HCl (pH 7.4) and 8 mM MgCl2, 450 nM cAMP and 0.25 μCi [3H]cAMP. […] After 30 min at 22° C. under shaking, the amount of [3H]5′AMP was quantified with a scintillation counter (MicroBeta, Perkin Elmer). […]

Assay [2] deals with T2, Human phosphodiesterase-4A1A (Homo sapiens, UniProt P27815).
T2 construct: host or cells: Sf9 cells
T2 sequence (P27815 1-647 isoform P27815-4): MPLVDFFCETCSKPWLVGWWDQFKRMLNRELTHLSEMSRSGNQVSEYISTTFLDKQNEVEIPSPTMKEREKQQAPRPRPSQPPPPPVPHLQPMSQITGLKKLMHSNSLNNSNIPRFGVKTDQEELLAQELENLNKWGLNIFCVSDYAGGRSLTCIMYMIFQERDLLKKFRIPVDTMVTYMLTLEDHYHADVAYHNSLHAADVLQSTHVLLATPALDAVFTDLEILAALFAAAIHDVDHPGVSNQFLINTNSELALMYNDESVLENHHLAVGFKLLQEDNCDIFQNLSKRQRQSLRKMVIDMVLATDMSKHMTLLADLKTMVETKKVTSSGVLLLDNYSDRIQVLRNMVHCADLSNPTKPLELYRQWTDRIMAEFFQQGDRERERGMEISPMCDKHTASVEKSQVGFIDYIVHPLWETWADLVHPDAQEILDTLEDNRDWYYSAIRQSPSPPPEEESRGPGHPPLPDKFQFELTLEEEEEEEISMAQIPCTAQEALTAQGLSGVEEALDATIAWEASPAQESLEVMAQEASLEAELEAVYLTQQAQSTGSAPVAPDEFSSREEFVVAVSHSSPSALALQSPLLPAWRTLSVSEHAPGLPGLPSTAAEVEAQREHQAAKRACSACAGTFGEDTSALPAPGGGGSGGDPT
The experiment in a line: PDE4A1A (h) assay. The method, then: The test compound (compound 72), reference compound or water (control) were added to a buffer containing 40 mM Tris/HCl (pH 7.4) and 8 mM MgCl2, 450 nM cAMP and 0.25 μCi [3H]cAMP. Thereafter, the reaction was initiated by addition of the enzyme (about 3 U) and the mixture was incubated for 20 min at 22° C. For basal control measurements, the enzyme was omitted from the reaction mixture. Following incubation SPA beads were added. After 30 min at 22° C. under shaking, the amount of [3H]5′AMP was quantified with a scintillation counter (MicroBeta, Perkin Elmer). The results were expressed as a percent inhibition of the control enzyme activity.
The test compound (compound 72), reference compound or water (control) were added to a buffer containing 40 mM Tris/HCl (pH 7.4) and 8 mM MgCl2, 450 nM cAMP and 0.25 μCi [3H]cAMP. […] After 30 min at 22° C. under shaking, the amount of [3H]5′AMP was quantified with a scintillation counter (MicroBeta, Perkin Elmer). The results were expressed as a percent inhibition of the control enzyme activity. The standard inhibitory reference compound was Ro 20-1724, which was tested in each experiment at several concentrations to obtain an inhibition curve from which its IC50 value was calculated. • Human phosphodiesterase-4B1 quantified by measuring the formation of 5′AMP from cAMP using a human recombinant enzyme expressed in Sf9 cells.

For assay [3], the target named is T3, Human phosphodiesterase-10A2 (Homo sapiens, UniProt Q9Y233).
T3 construct: host or cells: Sf9 cells
T3 sequence (Q9Y233 267-1055): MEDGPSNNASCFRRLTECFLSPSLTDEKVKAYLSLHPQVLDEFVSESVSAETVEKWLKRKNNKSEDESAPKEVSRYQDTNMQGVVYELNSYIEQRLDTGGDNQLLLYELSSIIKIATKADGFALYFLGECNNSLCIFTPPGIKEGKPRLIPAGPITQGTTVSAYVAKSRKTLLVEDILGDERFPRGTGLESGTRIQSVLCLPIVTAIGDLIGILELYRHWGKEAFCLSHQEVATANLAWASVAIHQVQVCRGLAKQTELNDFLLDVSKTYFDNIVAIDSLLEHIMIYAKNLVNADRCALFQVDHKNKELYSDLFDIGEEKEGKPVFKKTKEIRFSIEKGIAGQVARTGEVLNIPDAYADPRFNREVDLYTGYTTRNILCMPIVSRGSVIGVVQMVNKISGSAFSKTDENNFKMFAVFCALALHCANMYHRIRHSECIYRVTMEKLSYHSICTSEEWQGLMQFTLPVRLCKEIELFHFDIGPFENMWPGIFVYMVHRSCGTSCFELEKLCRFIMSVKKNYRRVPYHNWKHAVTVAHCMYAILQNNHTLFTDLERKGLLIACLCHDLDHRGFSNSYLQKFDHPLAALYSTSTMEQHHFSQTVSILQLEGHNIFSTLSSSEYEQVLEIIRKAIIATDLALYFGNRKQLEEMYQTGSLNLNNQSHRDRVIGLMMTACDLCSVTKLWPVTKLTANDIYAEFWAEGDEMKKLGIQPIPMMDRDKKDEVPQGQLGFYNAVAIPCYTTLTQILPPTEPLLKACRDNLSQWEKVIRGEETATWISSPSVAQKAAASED
The experiment in a line: PDE10A2 (h) assay. The method, then:
The test compound (compound 72), reference compound or water (control) were added to a buffer containing 40 mM Tris/HCl (pH 7.4) and 8 mM MgCl2, 180 nM cAMP and 0.1 μCi [3H]cAMP. Thereafter, the reaction was initiated by addition of the enzyme (about 0.8 U) and the mixture was incubated for 20 min at 22° C. For basal control measurements, the enzyme was omitted from the reaction mixture. Following incubation SPA beads were added. After 30 min at 22° C. under shaking, the amount of [3H]5′AMP was quantified with a scintillation counter (MicroBeta, Perkin Elmer). The results were expressed as a percent inhibition of the control enzyme activity. The standard inhibitory reference compound was trequinsin, which was tested in each experiment at several concentrations to obtain an inhibition curve from which its IC50 value was calculated. • Human phosphodiesterase-10A2 quantified by measuring the formation of 5′AMP from cAMP using a human recombinant enzyme expressed in Sf9 cells.
The test compound (compound 72), reference compound or water (control) were added to a buffer containing 40 mM Tris/HCl (pH 7.4) and 8 mM MgCl2, 180 nM cAMP and 0.1 μCi [3H]cAMP. […] After 30 min at 22° C. under shaking, the amount of [3H]5′AMP was quantified with a scintillation counter (MicroBeta, Perkin Elmer). The results were expressed as a percent inhibition of the control enzyme activity. […]

T1 sequence (Q13370 whole entry): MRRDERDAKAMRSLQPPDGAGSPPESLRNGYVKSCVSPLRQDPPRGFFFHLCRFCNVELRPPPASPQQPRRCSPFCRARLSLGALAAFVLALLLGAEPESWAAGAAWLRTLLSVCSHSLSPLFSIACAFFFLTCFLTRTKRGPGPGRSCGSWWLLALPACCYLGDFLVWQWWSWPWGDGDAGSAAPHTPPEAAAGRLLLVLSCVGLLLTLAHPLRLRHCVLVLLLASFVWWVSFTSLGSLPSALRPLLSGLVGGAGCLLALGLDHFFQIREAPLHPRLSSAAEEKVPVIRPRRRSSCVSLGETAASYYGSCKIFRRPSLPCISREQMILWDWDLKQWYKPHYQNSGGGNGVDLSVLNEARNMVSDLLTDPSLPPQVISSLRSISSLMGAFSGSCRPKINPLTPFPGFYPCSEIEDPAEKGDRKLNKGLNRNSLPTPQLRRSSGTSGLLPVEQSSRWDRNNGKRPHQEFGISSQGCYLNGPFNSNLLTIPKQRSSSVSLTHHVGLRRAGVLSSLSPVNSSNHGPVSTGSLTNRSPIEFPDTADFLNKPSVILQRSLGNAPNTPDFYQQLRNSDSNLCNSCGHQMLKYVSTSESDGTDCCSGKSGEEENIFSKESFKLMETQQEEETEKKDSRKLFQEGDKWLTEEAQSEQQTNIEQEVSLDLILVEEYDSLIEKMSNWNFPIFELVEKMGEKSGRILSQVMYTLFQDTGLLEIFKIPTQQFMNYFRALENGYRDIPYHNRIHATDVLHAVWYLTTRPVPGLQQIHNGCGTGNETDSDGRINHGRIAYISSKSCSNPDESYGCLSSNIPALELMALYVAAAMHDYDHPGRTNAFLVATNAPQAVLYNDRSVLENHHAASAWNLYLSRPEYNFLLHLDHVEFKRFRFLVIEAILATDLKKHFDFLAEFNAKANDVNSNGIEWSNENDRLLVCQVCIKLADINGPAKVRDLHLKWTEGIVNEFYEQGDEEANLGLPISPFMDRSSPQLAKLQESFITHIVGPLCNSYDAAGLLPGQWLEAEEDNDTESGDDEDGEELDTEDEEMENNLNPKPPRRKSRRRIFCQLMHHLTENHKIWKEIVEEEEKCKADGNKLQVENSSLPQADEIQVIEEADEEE

In the case of `COCCN(CCOC)c1nc(N2CCN(C)C(=O)C2)c2nc(N(CCOC)CCOC)nc(N3CCC(OC)CC3)c2n1` [Compound 72, 4-(2,6-bis(bis(2-methoxyethyl)amino)-8-(4-methoxypiperidin-1-yl)pyrimido[5,4-d]pyrimidin-4-yl)-1-methylpiperazin-2-one], the IC50 in assay [1] was above 10 µM; in assay [2], above 10 µM; in assay [3], 1 to 10 µM.
